In patent US12606541B2, “PPARg modulators and methods of use” (Eisai R&D Management Co., Ltd., priority 2020, dated 2026):

target: T1, His6-TEV-PPARγ-(234-505) (Homo sapiens, UniProt P37231); test: TR-FRET Assay to Measure Co-R Peptide Recruitment to PPARγ; format: biochemical; conditions: Co-R peptide recruitment to PPARγ; read-out: TR-FRET AC50
T1 construct: The His6-TEV-PPARγ-(234-505) protein for assay was expressed and purified; TEV cleavage site (N); made in house
T1 sequence (P37231 234-505): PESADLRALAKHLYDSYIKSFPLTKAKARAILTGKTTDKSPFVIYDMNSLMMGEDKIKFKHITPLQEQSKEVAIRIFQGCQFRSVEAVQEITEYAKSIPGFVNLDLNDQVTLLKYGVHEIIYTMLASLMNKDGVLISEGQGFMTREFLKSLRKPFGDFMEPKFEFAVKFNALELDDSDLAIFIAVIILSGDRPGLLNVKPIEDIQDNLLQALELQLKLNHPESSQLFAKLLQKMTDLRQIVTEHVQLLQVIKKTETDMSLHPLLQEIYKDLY
Outline: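 Corepressor recruitment is measured by adding terbium-labeled anti-His antibody and FITC SMRT-ID2 peptide, at 5 and 200 nM final, after a 20-minute room-temperature protein–compound incubation. After one further hour, signal is converted to percent response between DMSO and 500 nM T0070907 wells.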

| SMILES | AC50 [µM] |
| --- | --- |
| COc1cc(-c2cc(C(=O)N3CCC(C(=O)NCc4ccc5c(c4)CN(C)C5)CC3)n[nH]2)c(Cl)cn1 [1-[5-(5-chloro-2-methoxypyridin-4-yl)-1H-pyrazole-3-carbonyl]-N-[(2-methyl-2,3-dihydro-1H-isoindol-5-yl)methyl]piperidine-4-carboxamide] | > 1 |
| O=C(NCc1ccncc1)C1CCN(C(=O)c2cc(-c3ccncc3)[nH]n2)CC1 [1-[5-(pyridin-4-yl)-1H-pyrazole-3-carbonyl]-N-[(pyridin-4-yl)methyl]piperidine-4-carboxamide] | > 1 |
| COc1cc(-c2cc(C(=O)N3CCC(C(=O)NC4(C)CC(F)(F)C4)CC3)n[nH]2)c(Cl)cn1 [1-[5-(5-chloro-2-methoxypyridin-4-yl)-1H-pyrazole-3-carbonyl]-N-(3,3-difluoro-1-methylcyclobutyl)piperidine-4-carboxamide] | > 1 |
| O=C(Nc1cccc(C(F)(F)F)c1)C1CCN(C(=O)c2cc(-c3ccncc3)[nH]n2)CC1 [1-[5-(pyridin-4-yl)-1H-pyrazole-3-carbonyl]-N-[3-(trifluoromethyl)phenyl]piperidine-4-carboxamide] | > 1 |
| COc1cc(-c2cc(C(=O)N3CCC(C(=O)NCc4ccn(C)n4)CC3)n[nH]2)c(Cl)cn1 [1-[5-(5-chloro-2-methoxypyridin-4-yl)-1H-pyrazole-3-carbonyl]-N-[(1-methyl-1H-pyrazol-3-yl)methyl]piperidine-4-carboxamide] | > 1 |
| COc1cc(-c2cc(C(=O)N3CCC(C(=O)O)CC3)n[nH]2)c(Cl)cn1 [1-[5-(5-chloro-2-methoxypyridin-4-yl)-1H-pyrazole-3-carbonyl]piperidine-4-carboxylic acid] | > 1 |
| O=C(N[C@H]1CC[C@@](O)(C(F)(F)F)CC1)C1CCN(C(=O)c2cc(-c3cc(OC4COC4)ncc3F)[nH]n2)C2(CC2)C1 (some centres unmarked) | > 1 |
| COc1cc(-c2cc(C(=O)N3CCC(C(=O)NC4COC(C)(C)OC4)CC3)n[nH]2)c(Cl)cn1 [1-[5-(5-chloro-2-methoxypyridin-4-yl)-1H-pyrazole-3-carbonyl]-N-(2,2-dimethyl-1,3-dioxan-5-yl)piperidine-4-carboxamide] | > 1 |
| COc1cc(-c2cc(C(=O)N3CCC(C(=O)Nc4nc5ccccc5n4C)CC3)n[nH]2)c(Cl)cn1 [1-[5-(5-chloro-2-methoxypyridin-4-yl)-1H-pyrazole-3-carbonyl]-N-(1-methyl-1H-1,3-benzodiazol-2-yl)piperidine-4-carboxamide] | > 1 |
| COc1cc(-c2cc(C(=O)N3CCC(C(=O)N[C@H]4CC[C@@](C)(O)CC4)CC3)n[nH]2)c(Cl)cn1 | > 1 |
| COc1cc(-c2cc(C(=O)N3CCC(C(=O)NCc4cccc(=O)[nH]4)CC3)n[nH]2)c(Cl)cn1 [1-[5-(5-chloro-2-methoxypyridin-4-yl)-1H-pyrazole-3-carbonyl]-N-[(6-oxo-1,6-dihydropyridin-2-yl)methyl]piperidine-4-carboxamide] | > 1 |
| O=C(NCc1ccc(Cl)cc1)C1CCN(C(=O)c2cc(-c3cccnc3)[nH]n2)CC1 [N-[(4-chlorophenyl)methyl]-1-[5-(pyridin-3-yl)-1H-pyrazole-3-carbonyl]piperidine-4-carboxamide] | > 1 |
| COc1cc(-c2cc(C(=O)N3CCC(C(=O)NCc4cnc5nccn5c4)CC3)n[nH]2)c(Cl)cn1 [1-[5-(5-chloro-2-methoxypyridin-4-yl)-1H-pyrazole-3-carbonyl]-N-({imidazo[1,2-a]pyrimidin-6-yl}methyl)piperidine-4-carboxamide] | > 1 |
| O=C(NC1CCCN(c2ccccc2)C1)C1CCN(C(=O)c2cc(-c3ccncc3)[nH]n2)CC1 (centres unmarked) [N-(1-phenylpiperidin-3-yl)-1-[5-(pyridin-4-yl)-1H-pyrazole-3-carbonyl]piperidine-4-carboxamide] | > 1 |
| COc1cc(-c2cc(C(=O)N3CCC(C(=O)NCc4ncccn4)CC3)n[nH]2)c(Cl)cn1 [1-[5-(5-chloro-2-methoxypyridin-4-yl)-1H-pyrazole-3-carbonyl]-N-[(pyrimidin-2-yl)methyl]piperidine-4-carboxamide] | > 1 |
| O=C(NCc1ccc(Cl)c(Cl)c1)C1CCN(C(=O)c2cc(-c3cccnc3)[nH]n2)CC1 [N-[(3,4-dichlorophenyl)methyl]-1-[5-(pyridin-3-yl)-1H-pyrazole-3-carbonyl]piperidine-4-carboxamide] | > 1 |
| COc1cc(-c2cc(C(=O)N3CCC(C(=O)NCc4cnccn4)CC3)n[nH]2)c(Cl)cn1 [1-[5-(5-chloro-2-methoxypyridin-4-yl)-1H-pyrazole-3-carbonyl]-N-[(pyrazin-2-yl)methyl]piperidine-4-carboxamide] | > 1 |
| O=C(Nc1ccc(F)cn1)C1CCN(C(=O)c2cc(-c3ccncc3)[nH]n2)CC1 [N-(5-fluoropyridin-2-yl)-1-[5-(pyridin-4-yl)-1H-pyrazole-3-carbonyl]piperidine-4-carboxamide] | > 1 |
| CC1CCCC(NC(=O)C2CCN(C(=O)c3cc(-c4ccncc4)[nH]n3)CC2)C1 (centres unmarked) [N-(3-methylcyclohexyl)-1-[5-(pyridin-4-yl)-1H-pyrazole-3-carbonyl]piperidine-4-carboxamide] | > 1 |
| COc1cc(-c2cc(C(=O)N3CCC(C(=O)Nc4cnncc4Cl)CC3)n[nH]2)c(Cl)cn1 [1-[5-(5-chloro-2-methoxypyridin-4-yl)-1H-pyrazole-3-carbonyl]-N-(5-chloropyridazin-4-yl)piperidine-4-carboxamide] | > 1 |

The remaining lines, values ahead:

| AC50 [µM] | SMILES |
| --- | --- |
| > 1 | Cc1nc(CNC(=O)C2CCN(C(=O)c3cc(-c4ccncc4)[nH]n3)CC2)sc1C [N-[(4,5-dimethyl-1,3-thiazol-2-yl)methyl]-1-[5-(pyridin-4-yl)-1H-pyrazole-3-carbonyl]piperidine-4-carboxamide] |
| > 1 | O=C(c1cc(-c2ccncc2)[nH]n1)N1CCC(C(=O)N2CCOCC2)CC1 [4-{1-[5-(pyridin-4-yl)-1H-pyrazole-3-carbonyl]piperidine-4-carbonyl}morpholine] |
| > 1 | COc1cc(-c2cc(C(=O)N3CCC(C(=O)NC4CC[C@H]5[C@H](CCN5C)C4)CC34CC4)n[nH]2)c(F)cn1 (relative stereo) [(7R*)—N-[(3aR,7aS)-1-methyl-octahydro-1H-indol-5-yl]-4-[5-(5-fluoro-2-methoxypyridin-4-yl)-1H-pyrazole-3-carbonyl]-4-azaspiro[2.5]octane-7-carboxamide] |
| > 1 | COc1cc(-c2cc(C(=O)N3CCC(C(=O)NC4CCS(=O)(=O)c5ccccc54)CC3)n[nH]2)c(Cl)cn1 (centres unmarked) [1-[5-(5-chloro-2-methoxypyridin-4-yl)-1H-pyrazole-3-carbonyl]-N-(1,1-dioxo-3,4-dihydro-2H-1λ^6-benzothiopyran-4-yl)piperidine-4-carboxamide] |
| > 1 | COc1cc(-c2cc(C(=O)N3CCC(C)(C(=O)NC4CCC(C)CC4)CC3)n[nH]2)ccn1 (centres unmarked) [1-[5-(2-methoxypyridin-4-yl)-1H-pyrazole-3-carbonyl]-4-methyl-N-(4-methylcyclohexyl)piperidine-4-carboxamide] |
| > 1 | O=C(NC1CC1)C1CCCN(C(=O)c2cc(-c3ccncc3)[nH]n2)C1 (centres unmarked) [N-cyclopropyl-1-[5-(pyridin-4-yl)-1H-pyrazole-3-carbonyl]piperidine-3-carboxamide] |
| > 1 | COc1ccc(CNC(=O)C2CCN(C(=O)c3cc(-c4ccncc4)[nH]n3)CC2)cc1 [N-[(4-methoxyphenyl)methyl]-1-[5-(pyridin-4-yl)-1H-pyrazole-3-carbonyl]piperidine-4-carboxamide] |
| > 1 | COc1cccc(CNC(=O)C2CCN(C(=O)c3cc(-c4ccncc4)[nH]n3)CC2)c1OC [N-[(2,3-dimethoxyphenyl)methyl]-1-[5-(pyridin-4-yl)-1H-pyrazole-3-carbonyl]piperidine-4-carboxamide] |
| > 1 | COc1cc(-c2cc(C(=O)N3CCC(C(=O)NCc4ccc(=O)[nH]c4)CC3)n[nH]2)c(Cl)cn1 [1-[5-(5-chloro-2-methoxypyridin-4-yl)-1H-pyrazole-3-carbonyl]-N-[(6-oxo-1,6-dihydropyridin-3-yl)methyl]piperidine-4-carboxamide] |
| > 1 | CC1(NC(=O)C2CCN(C(=O)c3cc(-c4ccncc4)[nH]n3)CC2)CCOCC1 [N-(4-methyloxan-4-yl)-1-[5-(pyridin-4-yl)-1H-pyrazole-3-carbonyl]piperidine-4-carboxamide] |
| > 1 | COc1cc(-c2cc(C(=O)N3CCC(C(=O)NCC4CCCCO4)CC3)n[nH]2)c(Cl)cn1 (centres unmarked) [1-[5-(5-chloro-2-methoxypyridin-4-yl)-1H-pyrazole-3-carbonyl]-N-[(oxan-2-yl)methyl]piperidine-4-carboxamide] |
| > 1 | COc1cc(-c2cc(C(=O)N3CCC(C(=O)N[C@H]4CC[C@@]5(CCO5)CC4)CC34CC4)n[nH]2)c(F)cn1 (single isomer, unassigned) |
| > 1 | COc1cc(-c2cc(C(=O)N3CCC(C(=O)Nc4cc(C(F)(F)F)ccn4)CC3)n[nH]2)c(Cl)cn1 [1-[5-(5-chloro-2-methoxypyridin-4-yl)-1H-pyrazole-3-carbonyl]-N-[4-(trifluoromethyl)pyridin-2-yl]piperidine-4-carboxamide] |
| > 1 | CC1CCC(NC(=O)C2CCN(C(=O)c3cc(-c4ccnc(C5CC5)c4)[nH]n3)CC2)CC1 (centres unmarked) [1-[5-(2-cyclopropylpyridin-4-yl)-1H-pyrazole-3-carbonyl]-N-(4-methylcyclohexyl)piperidine-4-carboxamide] |
| > 1 | C[C@H]1CC[C@H](NC(=O)C2CCN(C(=O)c3cc(-c4ccncc4)[nH]n3)CC2)CC1 |
